In publication PMC7883289, “Synthesis of Paeonol-Ozagrel Conjugate: Structure Characterization and In Vivo Anti-Ischemic Stroke potential” (Frontiers in Pharmacology, 2021):

Columns and labels:
[1] = system: middle cerebral artery occlusion (MCAO) rats; experiment: Evaluation of neurological deficit (Longa score) in MCAO rats; format: in vivo; conditions: 24 h after reperfusion, single iv dose 2 h after reperfusion: paeonol and OS 3 mg/kg, POC 4.5 mg/kg, n = 6
Description: Male Sprague Dawley (SD) rats weighing among 220 g-230 g (Anhui Medicine University, Hefei, China; certificate number: SCXK20190,003) were housed under ad libitum access to food and water with a standardized light-dark cycle condition (25 ± 2°C, 12-hour light/dark cycle). All the experimental protocols were performed in accordance with the Institutional Animal Care and Use Committee of Anhui University of Chinese Medicine (Animal ethics number: AHUCM-rats-2019001). We used the minimal number of study animals (n = 6 rats in each group for different experiments). The rats were fastened upon the operating table in a supine position after being anesthetized with 2% pelltobarbitalum natricum (50 mg/kg). After disinfection of the skin within close proximity of the operative region, the right common carotid artery (CCA), external carotid artery (ECA) and internal carotid artery (ICA) were exposed with blunt dissection. The CCA was temporarily ligated and the ECA were permanently ligated ([Liu et al., 2016]). A nylon monofilament surgical thread was introduced into the ICA to block the MCA when the blunted distal end met resistance. After 2 h of occlusion, reperfusion was accomplished to restore blood supply to the MCA area by removing the filament ([Li et al., 2009]; [Zhai et al., 2017]). […] Rats were split randomly into five groups, including the sham, model, paeonol, OS and POC group. […] Neurological deficit was evaluated 24 h after reperfusion (blinded to experimenters). […] The rating score was assessed by the following standard: no neurological deficit, 0; failure to extend left forepaw fully, one; spontaneous circling to the left, two; falling to the left, three; inability to walk spontaneously and coma of consciousness, 4. […] Neurological scores for each group were calculated using six rats according to a sample size calculation (α err prob = 0.05, 1-β err prob = 0.95) and references ([Katayama et al., 2017]; [[…] al., 2019]; [Zheng et al., 2019]).

PC12 cells = experiment: Cell viability, CCK8 method; format: cell-based, Rat; conditions: 24 h, CCK8, tested 37.5 to 1,200.0 μM
Description: Rat PC12 pheochromocytoma cells were obtained from the Cell Resource Center, Peking Union Medical College. PC12 cells were grown as monolayers in tissue culture flasks at 37°C under a humidified, 5% CO2 atmosphere in the high–glucose Dulbecco’s Modified Eagle Medium (DMEM) medium.
The CCK8 (MedChemExpress, United States) method was used to estimate the cytotoxic effects of POC. Before treatment, the cells were seeded onto 96-well culture plates at an appropriate density according to the experimental protocol. After 24 h, the medium was replaced with fresh medium containing varying concentrations (37.5, 75.0, 150.0, 300.0, 600.0, 1,200.0 μM) from the POC serial dilutions. And PC12 was allowed to grow for another 24 h. After incubation, the cell viability was evaluated using the CCK8 assay. The absorbance was read at 450 nm on a microplate reader. These cell viability experiments were made in triplicate.

[2] = system: middle cerebral artery occlusion (MCAO) rats; experiment: Measurement of infarct volume by TTC staining in MCAO rats; format: in vivo; conditions: 24 h after reperfusion, single iv dose: paeonol and OS 3 mg/kg, POC 4.5 mg/kg, n = 6
Description: Male Sprague Dawley (SD) rats weighing among 220 g-230 g (Anhui Medicine University, Hefei, China; certificate number: SCXK20190,003) were housed under ad libitum access to food and water with a standardized light-dark cycle condition (25 ± 2°C, 12-hour light/dark cycle). All the experimental protocols were performed in accordance with the Institutional Animal Care and Use Committee of Anhui University of Chinese Medicine (Animal ethics number: AHUCM-rats-2019001). We used the minimal number of study animals (n = 6 rats in each group for different experiments). The rats were fastened upon the operating table in a supine position after being anesthetized with 2% pelltobarbitalum natricum (50 mg/kg). After disinfection of the skin within close proximity of the operative region, the right common carotid artery (CCA), external carotid artery (ECA) and internal carotid artery (ICA) were exposed with blunt dissection. The CCA was temporarily ligated and the ECA were permanently ligated ([Liu et al., 2016]). A nylon monofilament surgical thread was introduced into the ICA to block the MCA when the blunted distal end met resistance. After 2 h of occlusion, reperfusion was accomplished to restore blood supply to the MCA area by removing the filament ([Li et al., 2009]; [Zhai et al., 2017]). […] Rats were split randomly into five groups, including the sham, model, paeonol, OS and POC group. After 2 h of reperfusion, the paeonol and OS groups received the drug by intravenous injection at a single dose of 3 mg/kg ([Imamura et al., 2003]; [Park et al., 2010]; [Gai et al., 2019]), which the doses of paeonol and OS uesd previously were benificial in rats and the dose of OS is within the clinical dose range. […] Cerebral infarction volume was determined using TTC staining. […] The infarction and total brain volume were quantified using ImageJ software. The infarct volume was calculated as a ratio of the infarcted tissue relative to the total area of the whole-brain coronal section ([Ye and Gao, 2008]; [Katayama et al., 2017]). […]

With `COc1ccc(C(C)=O)c(OC(=O)C=Cc2ccc(Cn3ccnc3)cc2)c1` [POC, paeonol-ozagrel conjugate] the “neurological deficits score (Longa, 0-4)” value [1] was 1.50 ± 0.55, the “concentration with no viability loss / no toxic effect” value (PC12 cells) was “less than 75 μM” and the “cerebral infarction volume percentage” value [2] was 11.77% ± 2.53.
